Test results published in article PMC11071649, “Synthesis and Selective Anticancer Activity Evaluation of 2-phenylacrylonitrile Derivatives as Tubulin Inhibitors” (Current Medicinal Chemistry, 2024).
Entries after “also recorded” stand apart in the source; their conditions may differ. Marks after values point to notes of the source that are not given here.

Assays:
[1] = test system: HeLa cervical cancer cell; assay: MTT anti-proliferative assay, HeLa; format: cell-based, human
Summary of the method: (§1)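 Cells grown in DMEM supplemented with FBS were seeded in 96-well format and treated with the analogs. Cytotoxicity was scored by MTT as reduction of net growth.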

L-02 normal cells = test system: L-02 normal cells; design: method as in PMID 27887843, PMID 29516624, PMID 30244610; conditions: Fig. 1; cited from earlier work
L-02 normal liver cell = assay: MTT assay, L-02 normal cells; format: cell-based, human; conditions: Homo sapiens, 48 h
Summary of the method: as §1

AGS gastric cancer cell = assay: MTT anti-proliferative assay, AGS; format: cell-based, human
Summary of the method: as §1

L-02 cells [2] = assay: Apoptosis by flow cytometry (annexin V-FITC/PI), L-02; format: cell-based, human; conditions: 12 h
Procedure: (§2) pH of the solution was adjusted to 2 with HCl solution (1 M), and the precipitate was subsequently collected by suction filtra- […]
(§3) in DMF (40 mL) at 0°C. After 2 h reaction, the mixture was poured into 300 mL ice water and mixed completely. Then adjust […]
(§4) mL) at 0°C, then after 15 min stirring, benzyl chloride (33 mmol) was added. The reaction mixture was moved to RT and al-lowed to continue, after which it was deemed essentially complete by TLC. Then the solution was removed and the mixture […]
(§5) 1.6. Cell lines and cell culture
(§6) MTT was purchased from Sigma-Aldrich Co. (St. Louis, MO, USA). The PI and Annexin V-FITC apoptosis detection kit were purchased from Invitrogen (Eugene, OR, USA). All human cell lines were used in this study. […]
(§7) the anti-proliferative activities were determined by MTT assay. […]
(§8) respectively. […] After 12 h, the cell detached, fixed, and analyzed the cell cycle by flow cytometry using a FACS Calibur flow cytometer with Cell Quest software (Becton-Dickinson, Franklin Lakes, NJ). […]
(§9) Apoptosis was detected using an apoptosis detecti5 on kit. […]
(§10) Vehicle group was treated with 0.1% DMSO. Following 12 h of incubation, cells were analyzed for apoptosis as previously described method, using a FACS Calibur flow cytometer with Cell Quest software (Becton-Dickinson, Franklin Lakes, NJ). […]
(§11) Quantitative cell migration was performed using 24-well Boyden chambers (Corning, NY, USA) as described. […]

[3] = test system: diffuse large B-cell lymphoma SU-DHL-10 cell; assay: MTT anti-proliferative assay, SU-DHL-10; format: cell-based, human
Summary of the method: as §1

HepG2 hepatoma cell = assay: MTT anti-proliferative assay, HepG2; format: cell-based, human
Summary of the method: as §1

[4] = test system: BEL-7402 liver cancer cell; assay: MTT anti-proliferative assay, BEL-7402; format: cell-based, human
Summary of the method: as §1

Human β-tubulin (TUBB) [5] = molecular target: T1, Human β-tubulin (TUBB) (Homo sapiens, UniProt P07437+P68363); assay: Tubulin polymerization inhibition, ELISA kit, HCT-116 cells; conditions: HCT-116, read-out: Tubulin % inhibition
HCT116 cells = assay: Apoptosis by flow cytometry (annexin V-FITC/PI), HCT116; format: cell-based, human; conditions: 0.1 μM, 12 h
Procedure: as §2, §3, §4, §5, §6, §7, §8, §9, §10, §11

[6] = test system: HCT116 colon cancer xenograft; assay: In vivo antitumor activity, colon cancer xenograft; design: species or system Nu/Nu nude mice
[7] = test system: HCT116 colectal cancer cell; assay: MTT anti-proliferative assay, HCT116; format: cell-based, human
Summary of the method: as §1

L-02 cells [8] = assay: Transwell cell migration assay, L-02; format: cell-based, human; conditions: 24 h
Procedure: Aggressive tumors have a strong ability to proliferate and migrate, and in many cases, cell mobility affects cell proliferation. […]
as §2, §3, §4, §5
MTT was purchased from Sigma-Aldrich Co. (St. Louis, MO, USA). […]
as §7, §8, §9, §10, §11

HeLa cancer cells = test system: HeLa cancer cells; design: method as in PMID 27887843; conditions: Fig. 1; cited from earlier work
[9] = test system: SGC-7901 early differentiation gastric cancer cell; assay: MTT anti-proliferative assay, SGC-7901; format: cell-based, human; conditions: Homo sapiens, SGC-7901; MTT, 48 h
Summary of the method: as §1

[10] = test system: MCF-10A normal breast cell; assay: MTT assay, MCF-10A normal cells; format: cell-based, human; conditions: Homo sapiens, MCF-10A, 48 h
Summary of the method: as §1

[11] = test system: Raji B lymphoblastoid cell; assay: MTT anti-proliferative assay, Raji; format: cell-based, human
Summary of the method: as §1

MGC-803 cancer cells = test system: MGC-803 cancer cells; design: method as in PMID 29516624, PMID 30244610; conditions: Fig. 1; cited from earlier work
A549 lung cancer cell = assay: MTT anti-proliferative assay, A549; format: cell-based, human
Summary of the method: as §1

[12] = test system: MGC-803 late stage differentiation gastric cancer cell; assay: MTT anti-proliferative assay, MGC-803; format: cell-based, human; conditions: Homo sapiens, MGC-803; MTT, 48 h
Summary of the method: as §1

MCF-7 breast cancer cell = assay: MTT anti-proliferative assay, MCF-7; format: cell-based, human
Summary of the method: as §1

Human β-tubulin (TUBB) [13] = molecular target: T1, Human β-tubulin (TUBB); assay: Tubulin polymerization inhibition, ELISA kit, BEL-7402 cells; conditions: Bel-7402, read-out: Tubulin % inhibition

T1 sequence (P07437 whole entry): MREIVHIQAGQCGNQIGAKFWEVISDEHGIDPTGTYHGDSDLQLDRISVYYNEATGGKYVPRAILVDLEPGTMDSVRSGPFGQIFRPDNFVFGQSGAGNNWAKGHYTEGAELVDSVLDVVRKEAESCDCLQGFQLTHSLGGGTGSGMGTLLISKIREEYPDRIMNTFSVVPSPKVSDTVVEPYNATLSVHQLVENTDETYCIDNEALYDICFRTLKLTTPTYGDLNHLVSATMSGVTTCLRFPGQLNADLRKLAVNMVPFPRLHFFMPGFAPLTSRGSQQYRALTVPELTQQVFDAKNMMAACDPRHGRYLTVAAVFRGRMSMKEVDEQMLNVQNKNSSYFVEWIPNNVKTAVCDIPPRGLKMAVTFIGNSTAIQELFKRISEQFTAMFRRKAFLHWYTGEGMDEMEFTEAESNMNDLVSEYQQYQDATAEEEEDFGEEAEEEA
T1 sequence (P68363 whole entry): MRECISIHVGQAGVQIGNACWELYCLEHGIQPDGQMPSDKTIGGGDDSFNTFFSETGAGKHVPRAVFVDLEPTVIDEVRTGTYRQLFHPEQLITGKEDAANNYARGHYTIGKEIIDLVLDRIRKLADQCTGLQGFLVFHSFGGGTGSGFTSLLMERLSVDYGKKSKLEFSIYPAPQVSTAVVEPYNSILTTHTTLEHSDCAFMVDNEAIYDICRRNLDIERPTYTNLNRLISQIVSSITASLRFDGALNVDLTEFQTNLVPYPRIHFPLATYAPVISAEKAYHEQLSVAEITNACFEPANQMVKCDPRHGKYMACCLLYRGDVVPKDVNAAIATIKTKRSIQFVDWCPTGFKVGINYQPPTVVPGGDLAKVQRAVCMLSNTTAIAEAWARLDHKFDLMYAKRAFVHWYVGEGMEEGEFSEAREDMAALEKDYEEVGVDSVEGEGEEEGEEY

CC(=O)O[C@H]1C(=O)[C@@]2(C)[C@H]([C@H](OC(=O)c3ccccc3)[C@]3(O)C[C@H](OC(=O)[C@H](O)[C@@H](NC(=O)c4ccccc4)c4ccccc4)C(C)=C1C3(C)C)[C@]1(OC(C)=O)CO[C@@H]1C[C@@H]2O [Taxol, Paclitaxel, reference compound]
SI (selectivity index), IC50 (L-02)/IC50 (HeLa) [1]: > 7.7^c | IC50 ([1]; Homo sapiens, HeLa, MTT, 48 h): 12900 ± 400 nM | IC50 (L-02 normal cells): > 100000 nM | IC50 (L-02 normal liver cell): > 100000 nM | SI (selectivity index), IC50 (L-02)/IC50 (AGS) (AGS gastric cancer cell): > 5000^c | IC50 (AGS gastric cancer cell; Homo sapiens, MTT, 48 h): 20 ± 10 nM | apoptosis in normal L-02 cells (L-02 cells [2]): almost no apoptosis | SI (selectivity index), IC50 (L-02)/IC50 (SU-DHL-10) [3]: > 555^c | IC50 ([3]; Homo sapiens, SU-DHL10, MTT, 48 h, read-out: IC50 SU-DHL-10): 180 ± 30 nM | SI (selectivity index), IC50 (L-02)/IC50 (HepG-2) (HepG2 hepatoma cell): > 106^c | IC50 (HepG2 hepatoma cell; Homo sapiens, HepG2, MTT, 48 h, read-out: IC50 HepG-2): 900 ± 30 nM | SI (selectivity index), IC50 (L-02)/IC50 (BEL-7402) [4]: > 1111^c | IC50 ([4]; Homo sapiens, Bel-7402, MTT, 48 h): 90 ± 20 nM | inhibition at 0.01 µM (Human β-tubulin (TUBB) [5]): 19.1 ± 6.27% | inhibition at 0.1 µM (Human β-tubulin (TUBB) [5]): 36.5 ± 6.07% | inhibition at 1 µM (Human β-tubulin (TUBB) [5]): 46 ± 4.89% | percentage of total apoptotic (early and late stage) HCT116 cells (HCT116 cells): 26.8% | mouse body weight ([6]; 25 mg/kg/day, xenograft mice): decreased significantly | average volume and weight of the tumor versus control group ([6]; 1g2a 12.5, 25, 50 mg/kg, taxol 25 mg/kg, from day 10): significantly lower; also recorded: inhibited the growth of tumors | SI (selectivity index), IC50 (L-02)/IC50 (HCT-116) [7]: > 3333^c | IC50 ([7]; Homo sapiens, HCT-116, MTT, 48 h): 30 ± 10 nM | migration of normal L-02 cells (L-02 cells [8]): almost no migration | IC50 (HeLa cancer cells): 13000 nM | IC50 [9]: > 100000 nM | IC50 [10]: 180 ± 20 nM | SI (selectivity index), IC50 (L-02)/IC50 (Raji) [11]: > 384^c | IC50 ([11]; Homo sapiens, Raji, MTT, 48 h, read-out: IC50 Raji): 260 ± 20 nM | IC50 (MGC-803 cancer cells): 60 ± 10 nM | SI (selectivity index), IC50 (L-02)/IC50 (A549) (A549 lung cancer cell): > 227^c | IC50 (A549 lung cancer cell; Homo sapiens, A549, MTT, 48 h): 400 ± 20 nM | IC50 [12]: 60 ± 10 nM | SI (selectivity index), IC50 (MCF-10A)/IC50 (MCF-7) (MCF-7 breast cancer cell): > 2.2^d | IC50 (MCF-7 breast cancer cell; Homo sapiens, MCF7, MTT, 48 h): 80 ± 10 nM | inhibition at 0.01 µM (Human β-tubulin (TUBB) [13]): 15 ± 2.65% | inhibition at 0.1 µM (Human β-tubulin (TUBB) [13]): 20.1 ± 5.34% | inhibition at 1 µM (Human β-tubulin (TUBB) [13]): 29.6 ± 4.88%
